Assay results: patent US20050187581A1, “Methods of treating disorders with electric fields” (priority 2000, published 2005)
Where two headings read alike, the source gives them in different places.

Legend:
[1] = system: BALB 3T3/A31 fibroblast/embryo cells; experiment: Membrane potential of BALB 3T3 cells, DiBAC intensity; assay type: cell-based, murine; settings: final concentration of 0.4 mM A23187
Procedure: A23187 is a monocarboxylic acid extracted from Streptomyces chartreusensis that acts as a mobile-carrier calcium ionophore. DiBAC is a fluorescent dye that enters the cell membrane when the membrane's potential changes. Thus, when the membranes of the BALB 3T3 cells depolarize, the DiBAC enters those membranes thereby increasing the intensity of the DiBAC signal (Y-axis) in the BALB 3T3 cells.
The changes in membrane potential were measured with flow cytometry. The methodology for the flow cytometry was as follows. Culture in DMEM was supplemented with 5% FCS 10 mM HEPES. It was then de-touched with 0.02% trypsin and 0.025% EDTA. […] It was then loaded with DiBAC4(3) of a final concentration of 200 nM. It was incubated at 37 degree C. for >5 min. Then the flow cytometry measurements were performed.

[2] = target: T1, human calcium receptor protein (HuPCaR) (Homo sapiens, UniProt P41180); experiment: FURA2 ratio fluorimetry of HuPCaR cells on stepwise additions of extracellular CaCl2; assay type: cell-based
T1 construct: expressed in transfected cells; host or cells: HEK (human embryonic kidney) cells, stably transfected
T1 sequence (P41180 20-1078): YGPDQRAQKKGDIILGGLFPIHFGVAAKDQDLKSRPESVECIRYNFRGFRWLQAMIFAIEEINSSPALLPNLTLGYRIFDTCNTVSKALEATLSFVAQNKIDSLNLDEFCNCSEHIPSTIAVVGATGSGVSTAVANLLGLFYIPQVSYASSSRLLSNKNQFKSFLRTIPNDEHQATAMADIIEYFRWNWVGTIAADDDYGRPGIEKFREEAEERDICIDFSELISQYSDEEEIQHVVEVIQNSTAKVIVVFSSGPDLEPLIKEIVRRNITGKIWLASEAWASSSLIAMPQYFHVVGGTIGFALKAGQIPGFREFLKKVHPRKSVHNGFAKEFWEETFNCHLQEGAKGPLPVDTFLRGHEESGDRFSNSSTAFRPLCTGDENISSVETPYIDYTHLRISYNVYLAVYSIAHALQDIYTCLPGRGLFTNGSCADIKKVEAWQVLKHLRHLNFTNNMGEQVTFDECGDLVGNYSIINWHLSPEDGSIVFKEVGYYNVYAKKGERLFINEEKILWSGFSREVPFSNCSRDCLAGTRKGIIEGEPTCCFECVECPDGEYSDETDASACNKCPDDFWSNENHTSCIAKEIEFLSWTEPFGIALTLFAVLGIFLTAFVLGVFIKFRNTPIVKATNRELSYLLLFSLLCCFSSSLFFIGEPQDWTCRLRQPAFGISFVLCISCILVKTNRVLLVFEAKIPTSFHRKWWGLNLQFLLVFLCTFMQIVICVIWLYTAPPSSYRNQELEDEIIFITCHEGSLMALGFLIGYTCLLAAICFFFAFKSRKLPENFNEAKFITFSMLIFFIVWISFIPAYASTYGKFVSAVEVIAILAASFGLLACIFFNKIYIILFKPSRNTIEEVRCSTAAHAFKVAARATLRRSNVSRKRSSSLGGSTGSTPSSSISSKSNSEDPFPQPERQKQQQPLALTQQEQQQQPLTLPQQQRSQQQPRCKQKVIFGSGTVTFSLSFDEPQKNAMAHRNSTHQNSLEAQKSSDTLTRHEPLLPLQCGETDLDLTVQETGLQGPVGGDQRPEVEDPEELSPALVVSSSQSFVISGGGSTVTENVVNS
Procedure: In selected experiments, ionomycin (1 micromolar final concentration-stock dissolved in dimethyl sulfoxide) was added in order to quantify differences in FURA2 ratio fluorescence. Ionomycin was added to the cells to obtain a maximal fluorescence signal from the FURA2 for purposes of quantification. FIG. 15 outlines the experimental system that was utilized to obtain the data described below. Cultured HEK or HuPCaR cells were loaded with FURA2 after their growth on plastic tissue culture dishes, scraped and rinsed in buffer to create a cell suspension that was then divided into various aliquots. Selected aliquots were exposed to EF in the EF exposure device. Subsequent to either EF exposure or sham control (no EF) treatments, aliquots of cells were used for standard ratio imaging fluorimetry analysis to measure changes in intracellular Ca^2+ concentrations. Initially, measurements were obtained of the baseline intracellular Ca^2+ concentration for each aliquot of cells as shown by the bracket marked #1 in FIG. 15. […] In an effort to obtain more quantitative data from individual aliquots within an individual experiment as well as comparison of data from different experiments, we incorporated the use of ionomycin as shown in FIG. 13 to determine the maximal FURA2 signal achievable within each aliquot of cells. […]

ovariectomized rats = settings: restraint, after 60 min session, n=6
Procedure: Rats were restricted by wrapping each with a thin polycarbonate sheet and laying it over the lower electrode for 30 min.
To examine the effect of exposure to EF, we used normal and ovariectomized rats. Normal rats were divided into two groups of restraint alone and restraint plus EF.
Ovariectomies were performed 4 weeks before experimentation. EF exposure and restraint treatment applied in this study were as follows: Rats were exposed to 50 Hz, 17,500 V/m EF for a total of 1 hr. Rats were restrained with thin polycarbonate sheeting for the latter half of the EF exposure period. The experimental design in the control groups was the same as in the experimental group except for the absence of EF exposure. […]
Hematological analyses including red and white blood cell count, platelet count, hematocrit and hemoglobin levels were performed using an automatic multi-hemocytometer (Sysmec CC-78, Sysmec inc., Tokyo, Japan). Plasma glucose, lactate and pyruvate levels were measured with an automatic analyzer (7170 Hitachi, Hitachi Co. ltd., Tokyo, Japan). ACTH levels were measured by using an ACTH radio immunoassay kit (ACTH IRMA, MITSUBISHI CHEMICAL Co. Ltd.) and a gamma counter (Auto-Gamma 5530 Gamma Counting System, Packard Instrument Co. ltd.). Plasma corticosterone level was measured using a commercial kit (ImmuChem Double Antibody Corticosterone kit, ICN Biomedicals Inc.). […]

mouse splenocytes = experiment: [Ca^2+]c-high cells in lectin-stimulated mouse splenocytes, fluo-3 flow cytometry; assay type: cell-based, BALB/c mice
Procedure: In order to avoid contact of the cells and the lower electrode, polycarbonate membrane (Isopore, MILLIPORE, MA USA) was placed between the dish and the insert. Approximately 1 ml of the cell suspension was poured into culture well/space and covered with a lid.
Female BALB/c mice, 4-7 wk old obtained from CLEA Inc. (Tokyo, Japan) maintained in a conventional animal house equipped with clean air-filtering device were splenectomized under anesthesia, and cell suspensions of splenocytes were prepared. To examine cell viability, the cells were cultivated in Dulbecco's modified Eagle's medium (SIGMA, MO, USA) supplemented with 10% fetal bovine serum (FSB). The cells were maintained in Hank's balanced salt solution (HBSS) (SIGMA, MO, USA) during examination for [Ca^2+]c which was carried out within 4 hr after cell preparation. Cells were stored at 4 degree C. prior to use.
Splenocytes (10^6 cells/ml) were incubated for 20 min at 37 degrees C. in HBSS containing 2.5 μM fluo-3-acetoxylmethyl (Molecular Probes, USA) [Vandenberghe et al., 1990]. The cell suspension was then diluted 5 times with HBSS containing 1% FBS, incubated for 40 min at 37 degrees C., washed 3 times with assay buffer, and the cells were then suspended in the assay buffer at a concentration of 1×10^6/ml. Throughout the cell preparation, the cell suspensions were mixed gently.
Considering the reported synergistic interaction between EMF and mitogen (Walleczek and Liburdy, 1990), concanavalin-A (Con-A) (Seikagaku Co., Tokyo, Japan) and phytohemaglutinin (PHA) (SIGMA, MO, USA) were used.
Taking into account the results of the viability test for exposed murine splenocytes earlier assayed, we chose to use the optimum culture and exposure conditions (60 Hz, 6 μA/cm^2 EF) in carrying out the following five experiments: • (1) cells suspended in HEPES-buffered saline (BS)+1 mM CaCl2 were exposed to EF for a total of 40 min, and 12.5 μg/ml of Con-A was added after the first 8 min of exposure. The control groups consisted of EF-unexposed cells containing Con-A, and EF-exposed cells without Con-A. Percent [Ca^2+]c-high cells was checked at certain exposure points; • (2) cells in HEPES-BS+1 mM CaCl2 were exposed for a total of 12 min, and different concentrations (1 ng-12.5 μg/ml) of Con-A were added after the first 4 min of exposure. The control group was essentially the same as that of the experimental group but without EF-exposure; • (3) cells in HEPES-BS+1 mM CaCl2 were exposed for a total of 8 min, and 5 μg/ml of PHA was added after the first 4 min of exposure. The control groups consisted of EF-unexposed cells containing PHA, and EF-exposed cells without PHA; • (4) cells suspended in HEPES-BS without CaCl2 were exposed for a total of 12 min, and different concentrations (1 ng-5 μg/mil) of Con-A were added after the first 4 min of exposure. The control group was essentially the same as the experimental group but without EF exposure; and • (5) to evaluate the persistent effect of EF exposure, cells suspended in HEPES-BS+[…] were exposed for a total of 4 min, after which different concentrations (0.025-12.5 μg/ml) of Con-A were added, and the generation of [Ca^2+]c-high cells for the next 8 min without EF exposure was monitored with flow cytometry. The control was essentially the same as the experimental group but without any EF-exposure. Statistical Analysis

murine splenocytes = experiment: Cytoplasmic free Ca^2+ in murine splenocytes stimulated with ConA, fluo3 flow cytometry; assay type: cell-based, mice; settings: ConA stimulation after 4 min exposure
Procedure: In order to determine the effect of EF on calcium ion concentration in murine splenocytes, specific EF field exposures of 60 Hz were applied to murine splenocytes. Mice were splenectomized under anesthesia. In a 60 mm dish, the spleen was injected with PBS (phosphate buffered saline including 0.083% NH4Cl). The cells were re-suspended and maintained in Hank's balanced salt solution (HBSS) (SIGMA, MO, USA), during examination for [Ca^2+ ]c, which was carried out within 4 hours after cell preparation. Cells were stored at 4° C. prior to use.
The application of a 60 Hz EF to splenocyte cells created applied current densities of 6, 20, 60, and 200 μA/cm^2. Splenocyte cells were exposed to these conditions for 4 minutes, after which exposure the splenocyte samples were stimulated with Concanavalin A (ConA). Following stimulation of splenocytes with ConA, cytoplasmic free Ca^2+ concentration was determined by fluo3 flow cytometry.

Compound: CNc1ccc2oc(C[C@H]3O[C@@]4(CC[C@H]3C)O[C@H]([C@H](C)C(=O)c3ccc[nH]3)[C@H](C)C[C@H]4C)nc2c1C(=O)O [A23187]
- Membrane potential (DiBAC intensity) [1]: alters the membrane potential

Compound: [Ca+2].[Cl-].[Cl-] [Ca^2+, CaCl2]
- EC50 ([2]; FURA2 response method of Quinn et al., read-out: EC50 value for Ca^2+ derived using the method outlined in FIG. 20): 3.5 mM
- EC50 ([2]; calculated from Na+/Ca2+ ratio midpoint 36.6, Standard Experimental Buffer of 125 mM NaCl, FURA2 baseline, read-out: EC50 value for Ca): 3.5 mM

Compound: CN1C(=O)CN=C(c2ccccc2)c2cc(Cl)ccc21 [diazepam]
- WBC counts (ovariectomized rats): 85 ×10^2 cells/μl

Compound: concanavalin-A [Con-A]
- Time post-Con-A stimulation of decline in [Ca^2+]c-high cells (mouse splenocytes; 12.5 μg/ml Con-A): approximately 4 min
- Time to saturation point of Con-A-induced response after addition of the mitogen (mouse splenocytes; 12.5 μg/ml Con-A): 5 to 8 min
- Number of [Ca^2+]c-high cells (mouse splenocytes; 12.5 μg/ml Con-A, 1 mM CaCl2, EF-exposed and unexposed cell suspensions): increased significantly
- [Ca^2+]c-high cells compared to cells stimulated with 0.025 μg/ml of Con-A (mouse splenocytes; 3.125-12.5 μg/ml Con-A, unexposed or earlier exposed to EF for 4 min): significant increase
- Time post-Con-A stimulation at which sustained increase in [Ca^2+]c-high cells leveled off (mouse splenocytes; 3.125 and 6.25 μg/ml Con-A): about 8 min
- Con-A-dependent [Ca^2+]c rise (mouse splenocytes; Ca^2+-free cell condition, control and EF-exposed groups): negligible
- Calcium concentration in the splenocyte cells (murine splenocytes): increased
